Reference: US20260108546A1 (ELI LILLY AND COMPANY, priority 2024, published 2026)

Target: T1, hGIP-R (Homo sapiens, UniProt P48546)
T1 construct: expressed in transfected cells; host or cells: HEK-293 clonal cell lines
T1 sequence (P48546 22-466): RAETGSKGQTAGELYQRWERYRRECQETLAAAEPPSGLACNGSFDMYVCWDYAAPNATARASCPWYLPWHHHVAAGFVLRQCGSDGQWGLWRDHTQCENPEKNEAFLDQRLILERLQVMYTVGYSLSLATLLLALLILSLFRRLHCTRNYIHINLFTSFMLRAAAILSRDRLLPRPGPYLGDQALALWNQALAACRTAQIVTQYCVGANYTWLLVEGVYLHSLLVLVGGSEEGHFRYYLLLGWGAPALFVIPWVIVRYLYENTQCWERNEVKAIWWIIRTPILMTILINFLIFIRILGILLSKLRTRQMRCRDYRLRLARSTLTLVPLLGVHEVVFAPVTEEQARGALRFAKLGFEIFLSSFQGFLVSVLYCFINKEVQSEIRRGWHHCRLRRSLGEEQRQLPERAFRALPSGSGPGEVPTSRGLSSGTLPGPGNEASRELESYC
Experiment: Functional hGIP-R Assay (cAMP formation, HTRF)
Format: cell-based
Conditions: for Emax: cAMP efficacy, percent of maximal response to GIP(1-42)OH, 37° C., 0.1% bovine casein, arithmetic mean ± SEM; for EC50: cAMP potency, HEK-293 cells expressing hGIP-R, incubated at 37° C. in the presence of 0.1% bovine casein, geometric mean, read-out: Human GIP-R EC50, nM (SEM, n)
Protocol: Functional activity was determined using CAMP formation in HEK-293 clonal cell lines expressing hGIP-R. hGIP-R receptor expressing cells were treated with compound (20 point concentration-response curve in DMSO, 2-fold Labcyte Echo direct dilution, 384 well plate Corning Cat #3570) in DMEM (Gibco Cat #31053) supplemented with 1× GlutaMAX™ (Gibco Cat #35050), 0.1% bovine casein (Sigma C4765-10ML), 250 μM IBMX (3-Isobutyl-1-methylxanthine, Acros Cat #228420010) and 20 mM HEPES (Gibco Cat #15630) in a 20 μL assay volume (final DMSO concentration was 1%). After a 30 min incubation at 37° C., the resulting increase in intracellular cAMP was quantitatively determined using the Revvity CAMP Dynamic 2 HTRF Assay Kit (62AM4PEJ). Briefly, cAMP levels within the cell were detected by adding the cAMP-d2 conjugate in cell lysis buffer (10 μL) followed by the antibody anti-cAMP-Eu^3+-Cryptate, also in cell lysis buffer (10 μL). The resulting competitive assay was incubated for at least 60 min at RT, then detected using a BMG Labtech PHERAstar FSX instrument with excitation at 320 nm and emission at 665 nm and 620 nm. PHERAstar units (emission at 665 nm/620 nm*10,000) are inversely proportional to the amount of cAMP present and were converted to nM cAMP per well using a CAMP standard curve. The amount of cAMP generated (nM) in each well was converted to a percent of the maximal response observed with human GIP (1-42) OH. A relative EC50 value and percent top (Emax) were derived by non-linear regression analysis using the percent maximal response vs. the concentration of compound added, fitted to a four-parameter logistic equation.

Emax [%] | EC50 [nM] | Structure (SMILES)
126 ± 2.39 | 79.7 | Cn1cc(C[C@@H](NC(=O)[C@H]2C[C@@H]2c2ccc(-c3cnc4nn(C)cc4c3)cc2)C(=O)NC(C)(C)Cn2nc(C(F)(F)F)cc2-n2ccccc2=O)cn1 [Example 20, (1S,2S)-N-((R)-1-((2-Methyl-1-(5-(2-oxopyridin-1(2H)-yl)-3-(trifluoromethyl)-1H-pyrazol-1-yl)propan-2-yl)amino)-3-(1-methyl-1H-pyrazol-4-yl)-1-oxopropan-2-yl)-2-(4-(2-methyl-2H-pyrazolo[3,4-b]pyridin-5-yl)phenyl) cyclopropane-1-carboxamide]
102 ± 1.71 | 63.4 | Cn1cc(C[C@@H](NC(=O)[C@H]2C[C@@H]2c2ccc(-c3cnc4nn(C)cc4c3)cc2)C(=O)NC(C)(C)Cn2nc(C(F)(F)F)cc2C2CC2)cn1 [Example 21, (1S,2S)-N-((R)-1-((1-(5-Cyclopropyl-3-(trifluoromethyl)-1H-pyrazol-1-yl)-2-methylpropan-2-yl)amino)-3-(1-methyl-1H-pyrazol-4-yl)-1-oxopropan-2-yl)-2-(4-(2-methyl-2H-pyrazolo [3,4-b]pyridin-5-yl)phenyl) cyclopropane-1-carboxamide]
109 ± 11.6 | 61.3 | Cn1cc(C[C@@H](NC(=O)[C@H]2C[C@@H]2c2ccc(-c3cnc4nn(C)cc4c3)nc2C(F)(F)F)C(=O)NC(C)(C)Cn2cc(C(F)(F)F)cn2)cn1 [Example 22, (1S,2S)-N-((R)-1-((2-Methyl-1-(4-(trifluoromethyl)-1H-pyrazol-1-yl)propan-2-yl)amino)-3-(1-methyl-1H-pyrazol-4-yl)-1-oxopropan-2-yl)-2-(6-(2-methyl-2H-pyrazolo[3,4-b]pyridin-5-yl)-2-(trifluoromethyl)pyridin-3-yl)cyclopropane-1-carboxamide]
111 ± 11.6 | 44.4 | Cn1cc(C[C@@H](NC(=O)[C@H]2C[C@@H]2c2ccc(-c3cnc4nc(C(F)(F)F)cn4c3)cc2)C(=O)NC(C)(C)Cn2nc(C(F)(F)F)cc2-n2ccnn2)cn1 [Example 23, (1S,2S)-N-((R)-1-((1-(5-(1H-1,2,3-Triazol-1-yl)-3-(trifluoromethyl)-1H-pyrazol-1-yl)-2-methylpropan-2-yl)amino)-3-(1-methyl-1H-pyrazol-4-yl)-1-oxopropan-2-yl)-2-(4-(2-(trifluoromethyl)imidazo [1,2-a]pyrimidin-6-yl)phenyl) cyclopropane-1-carboxamide]
133 ± 0.579 | 15.8 | COC(=O)c1cc(C(F)(F)F)nn1CC(C)(C)NC(=O)[C@@H](Cc1cnn(C)c1)NC(=O)[C@H]1C[C@@H]1c1ccc(-c2cnc3nc(C(F)(F)F)cn3c2)cc1 [Example 24, Methyl 1-(2-methyl-2-((R)-3-(1-methyl-1H-pyrazol-4-yl)-2-((15,2S)-2-(4-(2-(trifluoromethyl)imidazo [1,2-a]pyrimidin-6-yl)phenyl)cyclopropane-1-carboxamido)propanamido)propyl)-3-(trifluoromethyl)-1H-pyrazole-5-carboxylate]
142 ± 17.3 | 82.7 | Cn1cc(C[C@@H](NC(=O)[C@H]2C[C@@H]2c2ccc(-c3cnc4nc(C(F)(F)F)cn4c3)cc2)C(=O)NC(C)(C)Cn2nc(C(F)(F)F)cc2-c2nnc[nH]2)cn1 [Example 25, (1S,2S)-N-((R)-1-((1-(5-(4H-1,2,4-Triazol-3-yl)-3-(trifluoromethyl)-1H-pyrazol-1-yl)-2-methylpropan-2-yl)amino)-3-(1-methyl-1H-pyrazol-4-yl)-1-oxopropan-2-yl)-2-(4-(2-(trifluoromethyl)imidazo [1,2-a]pyrimidin-6-yl)phenyl) cyclopropane-1-carboxamide]
132 ± 15.5 | 17.4 | Cn1cc(C[C@@H](NC(=O)[C@H]2C[C@@H]2c2ccc(-c3cnc4nc(C(F)(F)F)cn4c3)cc2)C(=O)NC(C)(C)Cn2nc(C(F)(F)F)cc2-c2cn[nH]n2)cn1 [Example 26, (1S,2S)-N-((R)-1-((1-(5-(2H-1,2,3-Triazol-4-yl)-3-(trifluoromethyl)-1H-pyrazol-1-yl)-2-methylpropan-2-yl)amino)-3-(1-methyl-1H-pyrazol-4-yl)-1-oxopropan-2-yl)-2-(4-(2-(trifluoromethyl)imidazo [1,2-a]pyrimidin-6-yl)phenyl) cyclopropane-1-carboxamide]
99.3 | 61.6 | Cn1cc(C[C@@H](NC(=O)[C@H]2C[C@@H]2c2ccc(-c3cnc4nccn4c3)cc2)C(=O)NC(C)(C)Cn2nc(C(F)(F)F)cc2-c2cn[nH]n2)cn1 [Example 27, (1S,2S)-N-((R)-1-((1-(5-(2H-1,2,3-Triazol-4-yl)-3-(trifluoromethyl)-1H-pyrazol-1-yl)-2-methylpropan-2-yl)amino)-3-(1-methyl-1H-pyrazol-4-yl)-1-oxopropan-2-yl)-2-(4-(imidazo[1,2-a]pyrimidin-6-yl)phenyl) cyclopropane-1-carboxamide]
91.9 ± 0.597 | 20.5 | Cn1cc(C[C@@H](NC(=O)[C@H]2C[C@@H]2c2ccc(-c3cnc4nccn4c3)cc2)C(=O)NC(C)(C)Cn2nc(C(F)(F)F)cc2-c2cnn(C)c2)cn1 [Example 28, (1S,2S)-2-(4-(Imidazo[1,2-a]pyrimidin-6-yl)phenyl)-N-((R)-1-((2-methyl-1-(1′-methyl-5-(trifluoromethyl)-1′H,2H-[3,4′-bipyrazol]-2-yl)propan-2-yl)amino)-3-(1-methyl-1H-pyrazol-4-yl)-1-oxopropan-2-yl)cyclopropane-1-carboxamide]
95.2 ± 0.936 | 198 | CN(C(=O)[C@H]1C[C@@H]1c1ccc(-c2cnc3nn(C)cc3c2)cc1)[C@H](Cc1cnn(C)c1)C(=O)NC(C)(C)Cn1nc(C(F)(F)F)cc1-c1n[nH]c(=O)s1 [Example 30, (1S,2S)-N-Methyl-N-((R)-1-((2-methyl-1-(5-(5-oxo-4,5-dihydro-1,3,4-thiadiazol-2-yl)-3-(trifluoromethyl)-1H-pyrazol-1-yl)propan-2-yl)amino)-3-(1-methyl-1H-pyrazol-4-yl)-1-oxopropan-2-yl)-2-(4-(2-methyl-2H-pyrazolo[3,4-b]pyridin-5-yl)phenyl) cyclopropane-1-carboxamide]
117 ± 4.92 | 152 | CN(C(=O)[C@H]1C[C@@H]1c1ccc(-c2cnc3nn(C)cc3c2)cc1)[C@H](Cc1cnn(C)c1)C(=O)NC(C)(C)Cn1nc(C(F)(F)F)cc1-c1ccc(=O)n(C)c1 [Example 31, (1S,2S)-N-Methyl-N-((R)-1-((2-methyl-1-(5-(1-methyl-6-oxo-1,6-dihydropyridin-3-yl)-3-(trifluoromethyl)-1H-pyrazol-1-yl)propan-2-yl)amino)-3-(1-methyl-1H-pyrazol-4-yl)-1-oxopropan-2-yl)-2-(4-(2-methyl-2H-pyrazolo[3,4-b]pyridin-5-yl)phenyl) cyclopropane-1-carboxamide]
119 | 93.5 | CN(C(=O)[C@H]1C[C@@H]1c1ccc(-c2cnc3nn(C)cc3c2)cc1)[C@H](Cc1cnn(C)c1)C(=O)NC(C)(C)Cn1nc(C(F)(F)F)cc1-c1ccc[nH]c1=O [Example 32, (1S,2S)-N-Methyl-N-((R)-1-((2-methyl-1-(5-(2-oxo-1,2-dihydropyridin-3-yl)-3-(trifluoromethyl)-1H-pyrazol-1-yl)propan-2-yl)amino)-3-(1-methyl-1H-pyrazol-4-yl)-1-oxopropan-2-yl)-2-(4-(2-methyl-2H-pyrazolo[3,4-b]pyridin-5-yl)phenyl) cyclopropane-1-carboxamide]
108 | 133 | CN(C(=O)[C@H]1C[C@@H]1c1ccc(-c2cnc3nn(C)cc3c2)cc1)[C@H](Cc1cnn(C)c1)C(=O)NC(C)(C)Cn1nc(C(F)(F)F)cc1-c1cccc(=O)[nH]1 [Example 33, (1S,2S)-N-Methyl-N-((R)-1-((2-methyl-1-(5-(6-oxo-1,6-dihydropyridin-2-yl)-3-(trifluoromethyl)-1H-pyrazol-1-yl)propan-2-yl)amino)-3-(1-methyl-1H-pyrazol-4-yl)-1-oxopropan-2-yl)-2-(4-(2-methyl-2H-pyrazolo[3,4-b]pyridin-5-yl)phenyl) cyclopropane-1-carboxamide]
